In US11395823B2, “Topical administration of MEK inhibiting agents for the treatment of skin disorders” (Duke University, priority 2018, dated 2022):

Assays:
SKH-1Elite mice = assay: UV-induced skin carcinogenesis; format: in vivo
Text: UV is a primary cause of melanoma and non-melanoma skin cancer. To assess whether topical trametinib inhibits UV-induced skin carcinogenesis, SKH animals (n=10, 5 male and 5 female) were irradiated biweekly with 160 mJ broad band UVB along with pretreatment of solvent or trametinib.
UV induction of skin carcinogenesis: Six weeks old hairless SKH-1Elite mice were obtained from (Jackson Laboratory). Animals were subject to UVB irradiation (160-180 mJ dose) 3 times per week for 20 weeks using rayminder model 2 UVB midband lamp M2D24H and UV513AB digital UVA/UVB (280-400 nm) meter of General Tools. Mouse back skins were pretreated before each UV-radiation with 100 μl of solvent (5% DMSO in 95% acetone:olive oil (3:1 mixture) or 10 to 30 μM trametinib (n=5/group/sex).

C57/BL6 mice [1] = assay: Imiquimod (IMQ)-induced psoriasis model
C57/BL6 mice [2] = assay: DNFB-induced atopic dermatitis model (ear swelling)
K5-CreER.Braf^Ca/+ mice = assay: Topical treatment of Braf mutation-induced skin tumors and inflammation in K5-CreER.Braf^Ca/+ mice; format: in vivo
Procedure: Experiments were conducted that tested whether topical dose trametinib can effectively treat the skin lesions induced by Braf mutation. To do this, Braf mutation was induced in the rear back skins of 2-month old K5-CreER.Braf^Ca/+ mice with 4-OHT, and 7 days later, applied five consecutive daily topical doses of trametinib (see, FIG. 3a).
Braf mutant animals: K14-Cre and K5-CreER mice were provided by Duke University. These animals were crossed with Tyr-CreER.Braf^Ca+/−.PTEN−/− mice which were provided by Duke University. Genotyping were performed via PCR. For topical induction, the back skins of adult animals were shaved and treated with two consecutive daily doses of 4-OHT (Sigma, 5 mg/ml in ethanol).
Mouse tissues: For H&E staining of mouse skins, 5 μm frozen tissue sections were fixed with ethanol and stained with Hematoxylin and Eosin. For immunostaining, 5 μm frozen tissue sections were fixed with cold methanol, incubated with and a primary antibody against CD8 (Tonbo Biosciences), and detected with a secondary antibody conjugated to Dylight 488 (Invitrogen) followed by counterstaining with Hoechst 33342. The images were obtained with the Olympus imaging system.

[3] = tested on: recipient mouse T-cell alloreactivity; settings: oral administration; cited from earlier work

animal weight loss (C57/BL6 mice [1]; 60 μM topical): did not induce animal weight loss | gross morphological changes of internal organs, including liver, kidney and spleen and lymph nodes (C57/BL6 mice [1]; 60 μM topical): did not induce | thickness of the control (solvent-treated left) ears (C57/BL6 mice [2]; daily topical 0.2-20 μM): not significantly affected | histological appearance of kidney, spleen, and liver tissues (C57/BL6 mice [2]; topical dosage): normal histological appearance
SMILES: CC(=O)Nc1cccc(-n2c(=O)n(C3CC3)c(=O)c3c(Nc4ccc(I)cc4F)n(C)c(=O)c(C)c32)c1 [trametinib, N-(3-{3-Cyclopropyl-5-[(2-fluoro-4-iodophenyl)amino]-6,8-dimethyl-2,4,7-trioxo-3,4,6,7-tetrahydropyrido[4,3-d]pyrimidin-1 (2H)-yl}phenyl)acetamide]
number of tumor nodules (SKH-1Elite mice; 10 μM topical pretreatment before each UVB irradiation): significantly lower number of tumor nodules | number of tumor nodules (SKH-1Elite mice; 30 μM topical pretreatment before each UVB irradiation): significantly lower number of tumor nodules | PASI score (C57/BL6 mice [1]; 60 μM topical, day 3): reduced the PASI score | PASI score difference to control (C57/BL6 mice [1]; 60 μM topical, day 5): differences were minimized | IMQ-induced epidermal thickening (C57/BL6 mice [1]; topical): reduces IMQ-induced epidermal thickening | clinical appearance of DNFB challenged right ear lobes (C57/BL6 mice [2]; 0.2 μM topical): appeared thickened and inflamed | clinical appearance of DNFB challenged right ear lobes (C57/BL6 mice [2]; 20 μM topical): appeared smooth and normal | DNFB-induced ear swelling (C57/BL6 mice [2]; daily topical 0.2, 2, 20 μM, right ear): reduced by trametinib at a dose response manner | thickened epidermis and dermal cellular infiltration of DNFB-treated skins (histology) (C57/BL6 mice [2]; topical): normalized | skin tumors (clinical images) (K5-CreER.Braf^Ca/+ mice; five consecutive daily topical doses starting 7 days after 4-OHT, by day 11): completely regressed | treating oral lesions, topical versus systemic delivery of the same amount (K5-CreER.Braf^Ca/+ mice; topical vs systemic): more effective than systemic delivery | CD8+ immune cells in the dermis (immunostaining) (K5-CreER.Braf^Ca/+ mice; topical, five daily doses): reduced CD8+ immune cells in the dermis | epidermal neoplasia (histological analysis, H&E) (K5-CreER.Braf^Ca/+ mice; topical, five daily doses): regressed epidermal neoplasia | recipient mouse T-cell alloreactivity [3]: suppresses recipient mouse T-cell alloreactivity without affecting graft-vs-tumor effects
